The term inhibition denotes the drop in the measured response relative to a control, in per cent.

Assay [1] concerns the target Myosin light chain kinase, smooth muscle (Homo sapiens) (UniProt Q15746). Particulars: Compound concentration 1000.0 nM.
The target of assay [2] is TGF-beta receptor type-2 (Homo sapiens) (UniProt P37173). To be noted: Compound concentration 1000.0 nM.
Assay [3] concerns the target 5-hydroxytryptamine receptor 2B (Homo sapiens) (UniProt P41595). To be noted: Compound concentration 10.0 uM.
In assay [4] the target is RAC-beta serine/threonine-protein kinase (Homo sapiens) (UniProt P31751). Particulars: Compound concentration 1000.0 nM.
Assay [5] addresses Serine/threonine-protein kinase Chk2 (Homo sapiens) (UniProt O96017). Particulars: Compound concentration 1000.0 nM.
The target of assay [6] is Phosphatidylinositol 4,5-bisphosphate 3-kinase catalytic subunit alpha isoform (Homo sapiens) (UniProt P42336). To be noted: Compound concentration 1000.0 nM.
Assay [7] addresses Insulin receptor (Homo sapiens) (UniProt P06213). Particulars: Compound concentration 1000.0 nM.
The target of assay [8] is Ribosomal protein S6 kinase alpha-3 (Homo sapiens) (UniProt P51812). Particulars: Compound concentration 1000.0 nM.
Assay [9] has as its target T1, Protein kinase C iota type (Homo sapiens) (UniProt P41743).
T1 sequence (whole entry): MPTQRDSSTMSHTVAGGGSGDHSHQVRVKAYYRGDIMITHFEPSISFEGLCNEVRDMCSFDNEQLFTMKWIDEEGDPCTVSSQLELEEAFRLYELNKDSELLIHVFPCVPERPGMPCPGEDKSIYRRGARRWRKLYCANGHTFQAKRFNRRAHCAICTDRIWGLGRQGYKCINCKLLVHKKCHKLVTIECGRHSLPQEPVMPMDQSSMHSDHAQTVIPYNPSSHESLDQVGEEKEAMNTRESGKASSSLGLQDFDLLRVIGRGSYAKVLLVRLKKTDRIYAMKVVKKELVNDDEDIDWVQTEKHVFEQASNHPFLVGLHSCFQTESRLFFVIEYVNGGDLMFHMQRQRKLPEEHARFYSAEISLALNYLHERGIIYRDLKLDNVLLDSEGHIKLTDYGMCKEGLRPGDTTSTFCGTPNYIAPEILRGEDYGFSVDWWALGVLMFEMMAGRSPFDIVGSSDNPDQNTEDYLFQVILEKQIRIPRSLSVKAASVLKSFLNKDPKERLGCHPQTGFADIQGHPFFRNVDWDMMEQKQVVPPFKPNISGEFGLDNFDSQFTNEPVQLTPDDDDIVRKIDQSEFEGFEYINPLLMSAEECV
Particulars: Compound concentration 1000.0 nM.

Assay [10] concerns the target Ribosomal protein S6 kinase alpha-2 (Homo sapiens) (UniProt Q15349). To be noted: Compound concentration 1000.0 nM.
The target in assay [11] is Rho-associated protein kinase 1 (Homo sapiens) (UniProt Q13464). Particulars: Compound concentration 1000.0 nM.
For assay [12], the target named is T2, Mitogen-activated protein kinase 13 (Homo sapiens) (UniProt O15264).
T2 sequence (whole entry): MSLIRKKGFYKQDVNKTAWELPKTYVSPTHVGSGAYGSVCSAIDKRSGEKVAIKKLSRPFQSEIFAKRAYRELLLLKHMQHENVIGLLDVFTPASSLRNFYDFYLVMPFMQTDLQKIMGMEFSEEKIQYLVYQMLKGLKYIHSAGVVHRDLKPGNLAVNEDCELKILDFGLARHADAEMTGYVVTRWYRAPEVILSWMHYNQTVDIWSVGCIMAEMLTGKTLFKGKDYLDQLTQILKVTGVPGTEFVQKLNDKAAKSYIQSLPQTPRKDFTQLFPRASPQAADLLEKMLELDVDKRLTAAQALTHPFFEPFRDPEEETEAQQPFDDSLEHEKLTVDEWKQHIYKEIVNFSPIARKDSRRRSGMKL
Particulars: Compound concentration 1000.0 nM.

The target of assay [13] is Mast/stem cell growth factor receptor Kit (Homo sapiens) (UniProt P10721). To be noted: Compound concentration 1000.0 nM.
Chain of Mast/stem cell growth factor receptor Kit (Homo sapiens) (P10721 whole entry): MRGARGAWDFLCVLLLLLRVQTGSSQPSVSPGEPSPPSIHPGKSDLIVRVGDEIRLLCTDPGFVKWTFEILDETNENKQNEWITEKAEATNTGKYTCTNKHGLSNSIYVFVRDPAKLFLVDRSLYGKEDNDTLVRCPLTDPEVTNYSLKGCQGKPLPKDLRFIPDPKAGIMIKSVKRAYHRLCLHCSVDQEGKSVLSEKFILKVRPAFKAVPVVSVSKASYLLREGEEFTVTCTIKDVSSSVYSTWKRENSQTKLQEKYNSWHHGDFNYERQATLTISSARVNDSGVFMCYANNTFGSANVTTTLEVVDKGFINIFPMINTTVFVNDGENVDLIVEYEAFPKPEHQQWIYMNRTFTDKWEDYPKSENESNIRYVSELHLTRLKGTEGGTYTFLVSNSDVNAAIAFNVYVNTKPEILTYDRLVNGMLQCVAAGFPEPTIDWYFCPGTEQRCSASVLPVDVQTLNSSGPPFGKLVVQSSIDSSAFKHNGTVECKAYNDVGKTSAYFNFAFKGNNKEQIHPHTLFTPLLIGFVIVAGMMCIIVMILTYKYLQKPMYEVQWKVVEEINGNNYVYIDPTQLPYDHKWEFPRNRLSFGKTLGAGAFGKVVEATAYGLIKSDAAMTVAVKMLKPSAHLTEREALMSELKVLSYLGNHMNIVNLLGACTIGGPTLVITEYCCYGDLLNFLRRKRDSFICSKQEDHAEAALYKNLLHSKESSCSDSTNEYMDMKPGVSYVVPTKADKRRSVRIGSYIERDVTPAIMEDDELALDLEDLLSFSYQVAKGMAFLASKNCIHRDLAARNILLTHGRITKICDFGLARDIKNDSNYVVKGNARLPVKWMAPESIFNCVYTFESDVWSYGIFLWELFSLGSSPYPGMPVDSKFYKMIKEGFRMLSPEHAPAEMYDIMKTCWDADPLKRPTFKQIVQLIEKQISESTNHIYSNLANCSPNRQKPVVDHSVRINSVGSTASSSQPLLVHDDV
For assay [14], the target named is T3, Inhibitor of nuclear factor kappa-B kinase subunit epsilon (Homo sapiens) (UniProt Q14164).
T3 sequence (whole entry): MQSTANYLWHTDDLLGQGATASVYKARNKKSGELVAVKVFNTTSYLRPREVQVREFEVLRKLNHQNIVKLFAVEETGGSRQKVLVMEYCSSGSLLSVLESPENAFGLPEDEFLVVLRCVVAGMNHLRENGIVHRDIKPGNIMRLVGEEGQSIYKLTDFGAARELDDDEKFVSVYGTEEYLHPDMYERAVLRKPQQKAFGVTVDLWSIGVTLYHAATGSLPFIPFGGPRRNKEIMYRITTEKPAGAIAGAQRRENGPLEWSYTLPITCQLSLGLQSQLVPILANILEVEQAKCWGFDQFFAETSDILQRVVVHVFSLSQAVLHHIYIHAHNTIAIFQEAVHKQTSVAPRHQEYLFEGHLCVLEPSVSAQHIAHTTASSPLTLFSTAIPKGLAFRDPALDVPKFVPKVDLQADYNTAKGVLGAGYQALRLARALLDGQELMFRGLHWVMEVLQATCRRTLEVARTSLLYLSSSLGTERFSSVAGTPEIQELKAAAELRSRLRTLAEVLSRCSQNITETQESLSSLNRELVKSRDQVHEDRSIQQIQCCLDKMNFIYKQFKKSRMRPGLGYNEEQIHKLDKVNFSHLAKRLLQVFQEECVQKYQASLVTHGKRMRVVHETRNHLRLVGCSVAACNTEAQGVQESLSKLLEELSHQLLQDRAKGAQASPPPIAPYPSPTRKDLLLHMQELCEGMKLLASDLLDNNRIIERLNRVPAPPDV
Particulars: Compound concentration 1000.0 nM.

Assay [15] concerns the target Serine/threonine-protein kinase SBK1 (Homo sapiens) (UniProt Q52WX2). To be noted: Compound concentration 1000.0 nM.
Assay [16] concerns the target Tyrosine-protein kinase Yes (Homo sapiens) (UniProt P07947). Particulars: Compound concentration 1000.0 nM.
In assay [17] the test system is Proto-oncogene tyrosine-protein kinase receptor Ret (Homo sapiens), P07949 [V804M]. Particulars: Compound concentration 1000.0 nM.
Assay [18] addresses Serine/threonine-protein kinase/endoribonuclease IRE1 (Homo sapiens) (UniProt O75460). Particulars: Compound concentration 1.0 uM.
Assay [19] has as its target Mitogen-activated protein kinase 1 (Homo sapiens) (UniProt P28482). To be noted: Compound concentration 1.0 uM.
The target in assay [20] is Tyrosine-protein kinase FRK (Homo sapiens) (UniProt P42685). To be noted: Compound concentration 1.0 uM.
For assay [21], the target named is Cyclin-dependent kinase 13/Cyclin-K (Homo sapiens) (UniProt Q14004+O75909). Particulars: Compound concentration 1.0 uM.
The target of assay [22] is Serine/threonine-protein kinase 16 (Homo sapiens) (UniProt O75716). Particulars: Compound concentration 1.0 uM.

Chain of Tyrosine-protein kinase Yes (Homo sapiens) (P07947 2-543 limits assumed): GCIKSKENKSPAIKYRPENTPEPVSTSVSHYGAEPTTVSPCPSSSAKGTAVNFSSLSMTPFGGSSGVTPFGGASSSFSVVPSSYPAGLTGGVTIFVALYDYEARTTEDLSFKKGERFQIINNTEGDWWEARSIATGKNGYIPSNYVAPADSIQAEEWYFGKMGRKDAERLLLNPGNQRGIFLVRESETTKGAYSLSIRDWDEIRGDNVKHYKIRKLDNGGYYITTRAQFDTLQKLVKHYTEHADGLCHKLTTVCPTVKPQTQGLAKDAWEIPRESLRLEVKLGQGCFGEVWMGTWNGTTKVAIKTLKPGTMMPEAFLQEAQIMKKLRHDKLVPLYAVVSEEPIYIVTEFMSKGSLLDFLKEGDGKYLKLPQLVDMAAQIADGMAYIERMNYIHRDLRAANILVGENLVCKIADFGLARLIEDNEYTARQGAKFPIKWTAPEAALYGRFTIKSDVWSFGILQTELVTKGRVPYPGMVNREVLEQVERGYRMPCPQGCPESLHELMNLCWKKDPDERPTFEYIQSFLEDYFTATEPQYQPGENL
Chain of Ribosomal protein S6 kinase alpha-2 (Homo sapiens) (Q15349 whole entry): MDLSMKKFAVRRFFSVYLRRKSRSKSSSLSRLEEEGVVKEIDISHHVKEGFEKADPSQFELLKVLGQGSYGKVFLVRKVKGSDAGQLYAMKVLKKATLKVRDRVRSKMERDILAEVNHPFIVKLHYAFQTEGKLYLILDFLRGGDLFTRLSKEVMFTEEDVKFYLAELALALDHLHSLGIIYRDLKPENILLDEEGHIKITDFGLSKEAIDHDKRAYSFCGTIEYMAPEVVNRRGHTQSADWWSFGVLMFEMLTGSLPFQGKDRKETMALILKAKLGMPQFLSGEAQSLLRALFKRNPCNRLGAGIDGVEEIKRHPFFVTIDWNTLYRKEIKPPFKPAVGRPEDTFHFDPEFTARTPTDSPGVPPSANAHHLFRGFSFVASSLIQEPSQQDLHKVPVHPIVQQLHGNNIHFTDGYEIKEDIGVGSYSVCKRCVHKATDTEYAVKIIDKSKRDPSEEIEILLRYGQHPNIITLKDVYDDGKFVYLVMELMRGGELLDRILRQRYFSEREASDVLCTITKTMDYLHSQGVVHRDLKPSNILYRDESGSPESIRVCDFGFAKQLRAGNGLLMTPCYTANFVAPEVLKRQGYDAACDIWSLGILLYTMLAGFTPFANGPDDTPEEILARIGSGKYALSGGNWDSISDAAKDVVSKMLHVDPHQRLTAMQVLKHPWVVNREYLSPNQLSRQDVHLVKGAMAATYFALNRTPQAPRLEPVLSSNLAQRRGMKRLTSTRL
Chain of Serine/threonine-protein kinase SBK1 (Homo sapiens) (Q52WX2 whole entry): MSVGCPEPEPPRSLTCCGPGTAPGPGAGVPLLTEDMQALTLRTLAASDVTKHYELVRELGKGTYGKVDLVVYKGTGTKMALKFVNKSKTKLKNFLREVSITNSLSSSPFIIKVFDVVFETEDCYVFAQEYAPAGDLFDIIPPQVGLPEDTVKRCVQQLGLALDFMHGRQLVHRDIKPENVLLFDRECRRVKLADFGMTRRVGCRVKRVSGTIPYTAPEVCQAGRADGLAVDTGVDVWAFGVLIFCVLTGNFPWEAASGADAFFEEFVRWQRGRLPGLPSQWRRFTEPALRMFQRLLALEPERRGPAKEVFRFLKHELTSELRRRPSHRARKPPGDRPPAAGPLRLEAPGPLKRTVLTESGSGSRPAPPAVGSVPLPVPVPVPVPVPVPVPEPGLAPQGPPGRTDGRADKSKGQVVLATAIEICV
Chain of Myosin light chain kinase, smooth muscle (Homo sapiens) (Q15746 whole entry): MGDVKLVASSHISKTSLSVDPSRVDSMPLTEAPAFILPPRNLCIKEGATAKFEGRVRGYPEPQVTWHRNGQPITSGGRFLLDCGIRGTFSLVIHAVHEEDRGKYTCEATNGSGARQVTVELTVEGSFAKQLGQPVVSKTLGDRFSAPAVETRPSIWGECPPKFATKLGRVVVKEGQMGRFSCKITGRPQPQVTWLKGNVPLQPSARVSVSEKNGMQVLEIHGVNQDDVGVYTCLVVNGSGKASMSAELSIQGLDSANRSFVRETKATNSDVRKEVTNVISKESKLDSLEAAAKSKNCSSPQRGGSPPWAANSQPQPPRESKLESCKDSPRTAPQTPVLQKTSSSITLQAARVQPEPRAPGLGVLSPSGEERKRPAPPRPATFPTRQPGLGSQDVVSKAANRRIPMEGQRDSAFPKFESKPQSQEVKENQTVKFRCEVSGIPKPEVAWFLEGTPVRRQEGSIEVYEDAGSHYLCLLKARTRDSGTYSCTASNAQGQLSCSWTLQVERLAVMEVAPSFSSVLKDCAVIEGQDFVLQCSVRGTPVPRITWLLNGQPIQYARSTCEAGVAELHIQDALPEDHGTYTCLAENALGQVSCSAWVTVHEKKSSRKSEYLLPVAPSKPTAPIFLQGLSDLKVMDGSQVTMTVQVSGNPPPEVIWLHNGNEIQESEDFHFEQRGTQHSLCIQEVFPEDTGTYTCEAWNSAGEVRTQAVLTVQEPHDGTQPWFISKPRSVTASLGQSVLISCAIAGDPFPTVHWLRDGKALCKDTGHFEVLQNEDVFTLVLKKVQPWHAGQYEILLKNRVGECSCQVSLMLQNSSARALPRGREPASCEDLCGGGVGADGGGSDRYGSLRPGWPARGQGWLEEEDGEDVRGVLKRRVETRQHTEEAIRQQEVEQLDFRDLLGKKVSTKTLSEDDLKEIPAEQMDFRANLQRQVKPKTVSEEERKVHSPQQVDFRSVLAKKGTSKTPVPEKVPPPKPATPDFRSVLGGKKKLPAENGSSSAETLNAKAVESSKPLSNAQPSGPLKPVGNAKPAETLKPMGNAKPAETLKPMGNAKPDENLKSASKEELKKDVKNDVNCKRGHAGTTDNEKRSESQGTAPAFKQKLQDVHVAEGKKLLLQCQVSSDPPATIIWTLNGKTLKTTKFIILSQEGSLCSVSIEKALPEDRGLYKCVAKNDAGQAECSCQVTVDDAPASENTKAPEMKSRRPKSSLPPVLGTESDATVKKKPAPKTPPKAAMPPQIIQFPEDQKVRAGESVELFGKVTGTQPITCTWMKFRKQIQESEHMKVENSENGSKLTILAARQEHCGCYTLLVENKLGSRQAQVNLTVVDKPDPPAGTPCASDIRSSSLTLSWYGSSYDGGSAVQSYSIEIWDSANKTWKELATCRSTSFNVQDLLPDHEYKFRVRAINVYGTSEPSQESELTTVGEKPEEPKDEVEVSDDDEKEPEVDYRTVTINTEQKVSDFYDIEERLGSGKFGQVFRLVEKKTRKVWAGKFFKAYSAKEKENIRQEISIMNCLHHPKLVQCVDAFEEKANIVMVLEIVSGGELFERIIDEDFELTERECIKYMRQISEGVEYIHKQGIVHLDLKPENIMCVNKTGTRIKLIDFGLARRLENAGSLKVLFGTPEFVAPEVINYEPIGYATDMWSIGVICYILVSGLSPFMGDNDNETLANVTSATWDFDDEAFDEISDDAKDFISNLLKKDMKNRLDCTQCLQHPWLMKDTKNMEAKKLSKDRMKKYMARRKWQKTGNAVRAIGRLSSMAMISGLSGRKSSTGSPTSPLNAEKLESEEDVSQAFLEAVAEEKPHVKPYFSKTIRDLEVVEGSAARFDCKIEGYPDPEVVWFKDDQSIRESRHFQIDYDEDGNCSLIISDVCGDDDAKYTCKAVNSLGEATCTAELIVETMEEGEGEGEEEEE
Chain of 5-hydroxytryptamine receptor 2B (Homo sapiens) (P41595 whole entry): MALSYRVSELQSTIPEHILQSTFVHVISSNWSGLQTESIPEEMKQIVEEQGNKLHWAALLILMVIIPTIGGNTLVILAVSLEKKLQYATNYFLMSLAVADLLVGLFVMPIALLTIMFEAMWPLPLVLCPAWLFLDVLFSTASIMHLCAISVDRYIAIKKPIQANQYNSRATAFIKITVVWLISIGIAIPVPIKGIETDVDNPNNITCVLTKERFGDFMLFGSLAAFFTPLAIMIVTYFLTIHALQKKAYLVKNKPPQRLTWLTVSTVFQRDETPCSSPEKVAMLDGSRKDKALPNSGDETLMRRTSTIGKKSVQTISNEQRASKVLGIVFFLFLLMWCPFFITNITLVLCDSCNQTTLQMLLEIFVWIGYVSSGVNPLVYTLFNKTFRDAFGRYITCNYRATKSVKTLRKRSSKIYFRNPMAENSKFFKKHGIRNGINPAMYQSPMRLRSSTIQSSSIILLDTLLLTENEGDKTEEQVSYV

Regarding `Cc1nc(C2CCN(C(=O)c3ccc(OC(F)(F)F)cc3N)CC2)c2ncc(N3CCN(C)CC3)cc2n1` [BAY-693], the residual activity in [1] was 100%; in assay [2] it was 93%; in assay [4], 100%; in [5], 100%; in assay [6], 81%; in assay [7], 93%. The residual activity in [8] is 100%; in assay [9], 81%; in assay [10] it was 100%; in assay [11], 100%; in assay [12], 100%; in [13] it was 90%. Moreover, the residual activity in [14] is 97%; in assay [15], 40%; in [16] it was 100%; in [17] it was 100%. The inhibition in assay [3] was -1.28%.

Consider `CN1CCN(c2cnc3c(C4CCN(C(=O)c5ccc(OC(F)(F)F)cc5N)CC4)ncnc3c2)CC1` [BAY-885], for which the residual activity in assay [1] was 88%; in assay [2], 88%; in assay [4], 100%; in assay [5] it was 100%; in assay [6], 95%; in assay [7], 88%. Besides, the residual activity was 85% in [8]; 77% in assay [9]; 100% in assay [10]; 100% in [11]; 100% in [12]; 98% in assay [13]. Further, the residual activity in assay [14] was 98%; in assay [15], 100%; in assay [16], 100%; in assay [17] it was 100%. Also, the % residual kinase activity in [18] was 110%; in [19], 116%; in [20], 109%; in [21], 109%; in assay [22], 99%. For the same compound, the inhibition in assay [3] is 3.56%.

Values taken from ChEMBL document CHEMBL4507268 (2021).
